These results are taken from US9532982B2, “Pharmaceutical combination comprising a phosphatidylinositol 3-kinase inhibitor and/an aromatase inhibitor” (Novartis AG, priority 2012, dated 2017).

Structures are written as SMILES.

Test [1] relates to MCF7/Aro human breast carcinoma cells. Briefly: Δ4A induced MCF7/Aro cell proliferation (CellTiter-Glo), Compound A and exemestane, Example 1. The class given is cell-based. As to conditions: 10 nM Δ4A, 5 days, vs DMSO control. The method, then: (§1) Synergy is calculated by comparing a combination's response to those of its single agents, against the drug-with-itself dose-additive reference model.

Test [2] shares this test system. Briefly: Δ4A induced MCF7/Aro cell proliferation (CellTiter-Glo), Compound A and letrozole, Example 2. The class given is cell-based. As to conditions: 10 nM Δ4A, 5 days, vs DMSO control. The procedure:
as §1
A general note: In ATP-based viability assays light output follows the ATP content of the culture.

For `Cc1nc(NC(=O)N2CCC[C@H]2C(N)=O)sc1-c1ccnc(C(C)(C)C(F)(F)F)c1` [Compound A, (S)-Pyrrolidine-1,2-dicarboxylic acid 2-amide 1-({4-methyl-5-[2-(2,2,2-trifluoro-1,1-dimethyl-ethyl)-pyridin-4-yl]-thiazol-2-yl}-amide)], the “maximum level inhibition of Δ4A-driven cell proliferation, single agent” value in test [1] and in test [2] was 61% each time.
As to `C=C1C[C@@H]2[C@H](CC[C@]3(C)C(=O)CC[C@@H]23)[C@@]2(C)C=CC(=O)C=C12` [exemestane], in test [1], the “maximum level inhibition of Δ4A-driven cell proliferation, single agent” value came out at 33%.
For the compound `N#Cc1ccc(C(c2ccc(C#N)cc2)n2cncn2)cc1` [letrozole], the “maximum level inhibition of Δ4A-driven cell proliferation, single agent” value in test [2] was found to be 53%.
